From ChEMBL document CHEMBL5291721, “A preclinical secondary pharmacology resource illuminates target-adverse drug reaction associations of marketed drugs” (Nat Commun, 2023)

Columns and labels:
[1] = target: 5-hydroxytryptamine receptor 2A (Homo sapiens, UniProt P28223); format: functional, cell-based
[2] = target: T1, Muscarinic acetylcholine receptor M1 (Homo sapiens, UniProt P11229); format: functional
T1 sequence (P11229 whole entry): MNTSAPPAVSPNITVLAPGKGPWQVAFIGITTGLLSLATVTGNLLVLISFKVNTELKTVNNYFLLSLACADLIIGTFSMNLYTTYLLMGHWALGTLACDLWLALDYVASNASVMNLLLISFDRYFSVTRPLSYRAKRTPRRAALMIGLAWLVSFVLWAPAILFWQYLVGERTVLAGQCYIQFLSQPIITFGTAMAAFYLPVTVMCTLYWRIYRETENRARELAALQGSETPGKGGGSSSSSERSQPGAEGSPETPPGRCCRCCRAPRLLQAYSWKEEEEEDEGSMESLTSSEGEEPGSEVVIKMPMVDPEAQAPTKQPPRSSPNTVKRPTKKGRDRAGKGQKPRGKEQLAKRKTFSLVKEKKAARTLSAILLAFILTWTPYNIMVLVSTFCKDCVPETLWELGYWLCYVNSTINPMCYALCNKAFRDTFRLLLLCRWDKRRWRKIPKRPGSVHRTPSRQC

[3] = target: T2, Endothelin-1 receptor (Homo sapiens, UniProt P25101)
T2 sequence (P25101 whole entry): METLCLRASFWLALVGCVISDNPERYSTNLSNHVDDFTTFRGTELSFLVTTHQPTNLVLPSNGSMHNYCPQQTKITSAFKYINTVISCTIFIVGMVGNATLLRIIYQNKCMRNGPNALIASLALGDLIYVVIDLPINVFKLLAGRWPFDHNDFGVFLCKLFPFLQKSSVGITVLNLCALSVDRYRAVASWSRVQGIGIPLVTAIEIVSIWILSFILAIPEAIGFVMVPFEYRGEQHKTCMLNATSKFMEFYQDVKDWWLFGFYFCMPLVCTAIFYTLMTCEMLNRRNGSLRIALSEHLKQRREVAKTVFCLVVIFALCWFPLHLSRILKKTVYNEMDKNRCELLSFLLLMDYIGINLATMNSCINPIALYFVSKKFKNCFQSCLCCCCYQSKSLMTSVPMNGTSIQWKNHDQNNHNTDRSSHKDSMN

[4] = target: Gamma-aminobutyric acid receptor subunit alpha-1/alpha-2/beta-2/gamma-2 (Homo sapiens, UniProt P14867+P18507+P47869+P47870); format: protein-complex assay
[5] = target: T3, Progesterone receptor (Homo sapiens, UniProt P06401)
T3 sequence (P06401 whole entry): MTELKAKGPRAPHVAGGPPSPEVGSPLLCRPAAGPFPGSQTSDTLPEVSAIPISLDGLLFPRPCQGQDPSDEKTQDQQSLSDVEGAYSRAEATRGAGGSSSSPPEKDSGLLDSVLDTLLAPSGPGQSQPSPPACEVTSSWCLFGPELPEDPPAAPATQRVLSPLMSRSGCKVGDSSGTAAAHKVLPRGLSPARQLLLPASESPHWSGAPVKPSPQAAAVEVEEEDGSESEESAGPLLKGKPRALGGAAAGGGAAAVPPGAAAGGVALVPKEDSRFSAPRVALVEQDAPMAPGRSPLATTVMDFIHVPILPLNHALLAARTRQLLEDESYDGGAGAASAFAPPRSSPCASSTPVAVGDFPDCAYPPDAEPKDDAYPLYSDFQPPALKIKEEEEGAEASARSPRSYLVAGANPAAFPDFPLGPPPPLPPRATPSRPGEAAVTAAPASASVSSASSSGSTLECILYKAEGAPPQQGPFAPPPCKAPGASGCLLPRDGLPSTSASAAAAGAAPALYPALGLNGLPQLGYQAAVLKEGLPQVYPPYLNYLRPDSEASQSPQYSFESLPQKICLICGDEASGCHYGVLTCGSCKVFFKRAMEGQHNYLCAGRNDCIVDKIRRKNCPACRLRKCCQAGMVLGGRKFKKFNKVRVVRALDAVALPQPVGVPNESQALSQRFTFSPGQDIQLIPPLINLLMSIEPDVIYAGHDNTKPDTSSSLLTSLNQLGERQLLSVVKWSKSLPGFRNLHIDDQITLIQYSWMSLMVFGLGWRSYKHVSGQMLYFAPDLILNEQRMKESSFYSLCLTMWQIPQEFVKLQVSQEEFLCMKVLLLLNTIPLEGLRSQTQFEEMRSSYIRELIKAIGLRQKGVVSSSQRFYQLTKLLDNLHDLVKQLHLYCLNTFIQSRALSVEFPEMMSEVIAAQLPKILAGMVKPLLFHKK

[6] = target: T4, Muscarinic acetylcholine receptor M2 (Homo sapiens, UniProt P08172)
T4 sequence (P08172 whole entry): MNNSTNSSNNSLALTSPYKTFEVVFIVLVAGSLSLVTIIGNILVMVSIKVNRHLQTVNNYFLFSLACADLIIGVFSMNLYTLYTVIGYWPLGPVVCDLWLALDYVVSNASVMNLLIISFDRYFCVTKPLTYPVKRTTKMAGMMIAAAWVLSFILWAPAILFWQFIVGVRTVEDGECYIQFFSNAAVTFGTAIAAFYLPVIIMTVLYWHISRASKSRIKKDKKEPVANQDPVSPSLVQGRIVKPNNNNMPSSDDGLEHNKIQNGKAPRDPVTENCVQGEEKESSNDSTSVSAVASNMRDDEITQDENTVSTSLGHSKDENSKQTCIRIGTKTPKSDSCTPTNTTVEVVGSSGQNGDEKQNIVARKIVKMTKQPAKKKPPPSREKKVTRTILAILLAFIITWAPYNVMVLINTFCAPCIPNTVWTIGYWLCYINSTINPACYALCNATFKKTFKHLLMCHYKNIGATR
Also: assay procedure not described here.

Gamma-aminobutyric acid receptor subunit alpha-1/alpha-2/beta-2/gamma-2, sequence (P14867 whole entry): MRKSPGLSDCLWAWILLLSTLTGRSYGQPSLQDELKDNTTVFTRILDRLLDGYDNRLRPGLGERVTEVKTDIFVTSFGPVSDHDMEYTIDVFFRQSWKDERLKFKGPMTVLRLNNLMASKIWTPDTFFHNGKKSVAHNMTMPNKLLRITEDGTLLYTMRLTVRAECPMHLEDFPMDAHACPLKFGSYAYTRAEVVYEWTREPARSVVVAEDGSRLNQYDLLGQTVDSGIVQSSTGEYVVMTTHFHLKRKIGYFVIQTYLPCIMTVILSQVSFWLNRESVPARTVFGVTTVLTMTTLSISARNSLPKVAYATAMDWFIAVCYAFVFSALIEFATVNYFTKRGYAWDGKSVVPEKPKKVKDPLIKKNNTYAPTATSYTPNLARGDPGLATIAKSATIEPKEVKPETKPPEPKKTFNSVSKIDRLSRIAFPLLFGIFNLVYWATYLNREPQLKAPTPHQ
Gamma-aminobutyric acid receptor subunit alpha-1/alpha-2/beta-2/gamma-2, sequence (P47870 whole entry): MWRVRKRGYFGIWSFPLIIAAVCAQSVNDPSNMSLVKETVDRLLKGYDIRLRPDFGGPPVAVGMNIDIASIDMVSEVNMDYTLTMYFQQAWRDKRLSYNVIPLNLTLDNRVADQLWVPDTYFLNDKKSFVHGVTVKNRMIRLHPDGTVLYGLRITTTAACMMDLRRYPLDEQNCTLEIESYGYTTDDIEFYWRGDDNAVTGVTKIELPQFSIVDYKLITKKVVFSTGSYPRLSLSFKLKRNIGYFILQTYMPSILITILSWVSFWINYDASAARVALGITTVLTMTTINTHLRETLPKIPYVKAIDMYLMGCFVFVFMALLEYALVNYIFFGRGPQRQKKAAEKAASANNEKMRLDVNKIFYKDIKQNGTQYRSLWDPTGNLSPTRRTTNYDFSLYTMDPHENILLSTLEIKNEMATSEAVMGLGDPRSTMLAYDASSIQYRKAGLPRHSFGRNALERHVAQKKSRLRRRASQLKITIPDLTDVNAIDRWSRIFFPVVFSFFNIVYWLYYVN
Gamma-aminobutyric acid receptor subunit alpha-1/alpha-2/beta-2/gamma-2, sequence (P18507 whole entry): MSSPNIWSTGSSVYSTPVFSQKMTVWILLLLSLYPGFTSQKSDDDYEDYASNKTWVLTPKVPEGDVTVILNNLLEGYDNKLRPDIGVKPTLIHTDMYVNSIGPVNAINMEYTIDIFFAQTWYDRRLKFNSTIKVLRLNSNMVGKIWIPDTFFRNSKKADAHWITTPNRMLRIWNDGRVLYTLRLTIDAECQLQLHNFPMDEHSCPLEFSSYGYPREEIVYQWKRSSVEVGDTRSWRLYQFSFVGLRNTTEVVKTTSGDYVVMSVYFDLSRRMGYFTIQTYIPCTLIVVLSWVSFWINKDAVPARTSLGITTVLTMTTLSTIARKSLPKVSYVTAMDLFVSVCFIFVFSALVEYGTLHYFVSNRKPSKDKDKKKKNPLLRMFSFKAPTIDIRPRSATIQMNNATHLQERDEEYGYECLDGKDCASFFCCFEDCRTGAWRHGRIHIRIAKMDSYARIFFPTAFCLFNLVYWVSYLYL
Gamma-aminobutyric acid receptor subunit alpha-1/alpha-2/beta-2/gamma-2, sequence (P47869 whole entry): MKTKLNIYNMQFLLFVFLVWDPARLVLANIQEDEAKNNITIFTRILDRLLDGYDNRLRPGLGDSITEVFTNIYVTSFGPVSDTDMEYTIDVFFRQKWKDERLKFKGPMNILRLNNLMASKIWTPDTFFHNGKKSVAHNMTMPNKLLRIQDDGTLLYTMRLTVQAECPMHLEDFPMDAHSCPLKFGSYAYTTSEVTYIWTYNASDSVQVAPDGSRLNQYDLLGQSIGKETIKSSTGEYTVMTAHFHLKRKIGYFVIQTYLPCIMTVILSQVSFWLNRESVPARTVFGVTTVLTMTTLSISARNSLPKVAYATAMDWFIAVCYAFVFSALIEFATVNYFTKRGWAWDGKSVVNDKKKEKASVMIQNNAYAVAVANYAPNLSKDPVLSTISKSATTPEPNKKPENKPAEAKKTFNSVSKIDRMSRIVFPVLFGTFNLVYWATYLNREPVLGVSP
5-hydroxytryptamine receptor 2A, sequence (P28223 whole entry): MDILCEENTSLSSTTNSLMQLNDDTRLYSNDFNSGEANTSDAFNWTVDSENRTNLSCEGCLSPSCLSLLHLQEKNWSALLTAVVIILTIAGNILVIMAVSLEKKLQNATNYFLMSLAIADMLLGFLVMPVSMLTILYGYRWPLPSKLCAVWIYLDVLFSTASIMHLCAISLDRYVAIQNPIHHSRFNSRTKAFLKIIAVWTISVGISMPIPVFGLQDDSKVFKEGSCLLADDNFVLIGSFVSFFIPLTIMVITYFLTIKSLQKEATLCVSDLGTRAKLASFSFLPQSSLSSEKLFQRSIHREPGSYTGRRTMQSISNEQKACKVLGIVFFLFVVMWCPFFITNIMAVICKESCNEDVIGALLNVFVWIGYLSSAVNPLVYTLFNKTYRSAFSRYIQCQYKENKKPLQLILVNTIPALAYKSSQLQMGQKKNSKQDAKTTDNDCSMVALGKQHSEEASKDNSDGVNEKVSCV

Compound: C[N+]1(C)CCC(=C(c2ccccc2)c2ccccc2)CC1
- AC50 [1]: 19 µM
- AC50 [2]: 0.41 µM

Compound: C[N+](C)(C)CCOP(=O)([O-])OC[C@H](O)CO
- AC50 [3]: > 30 µM

Compound: CN(C)Cc1nnc2n1-c1ccc(Cl)cc1C(c1ccccc1)=NC2 [ADINAZOLAM]
- AC50 [2]: > 10 µM

Compound: CN(C)C/C=C/C(=O)Nc1cc2c(Nc3ccc(F)c(Cl)c3)ncnc2cc1O[C@H]1CCOC1 [AFATINIB]
- AC50 [1]: > 30 µM
- AC50 [3]: > 30 µM
- AC50 [2]: > 30 µM

Compound: Cc1ccccc1-n1c(CF)nc2ccc(N)cc2c1=O [AFLOQUALONE]
- AC50 [1]: > 10 µM
- AC50 [2]: > 10 µM

Compound: CCC1(c2ccc(N)cc2)CCC(=O)NC1=O (stereo not drawn) [AMINOGLUTETHIMIDE]
- AC50 [3]: > 30 µM

Compound: NC(=O)[C@@H]1CC[C@@H]2CN1C(=O)N2OS(=O)(=O)O [AVIBACTAM]
- AC50 [4]: > 30 µM

Compound: CC1=C(C(=O)OC(C)C)C(c2cccc([N+](=O)[O-])c2)C(C(=O)OC2CN(C(c3ccccc3)c3ccccc3)C2)=C(N)N1 (stereo not drawn) [AZELNIDIPINE]
- AC50 [1]: > 30 µM
- AC50 [3]: > 30 µM
- AC50 [2]: > 30 µM

Compound: CC(Cc1cccc(C(F)(F)F)c1)NCCOC(=O)c1ccccc1 (stereo not drawn) [BENFLUOREX]
- AC50 [1]: 6.86 µM
- AC50 [3]: > 30 µM
- AC50 [2]: > 30 µM

Compound: O=C(O)COCCN1CCN(C(c2ccccc2)c2ccc(Cl)cc2)CC1 (stereo not drawn) [CETIRIZINE]
- AC50 [3]: > 30 µM
- AC50 [5]: > 30 µM

Compound: C=C1CC[C@H](O)C/C1=C/C=C1\CCC[C@]2(C)[C@@H]([C@H](C)CCCC(C)C)CC[C@@H]12 [CHOLECALCIFEROL]
- AC50 [4]: > 30 µM

Compound: C[C@H](CCC(=O)O)[C@H]1CC[C@H]2[C@@H]3[C@H](O)C[C@@H]4C[C@H](O)CC[C@]4(C)[C@H]3C[C@H](O)[C@]12C [CHOLIC ACID]
- AC50 [4]: > 30 µM

Compound: Cc1ncc2c(c1O)COC2c1ccc(Cl)cc1 (stereo not drawn) [CICLETANINE]
- AC50 [4]: > 30 µM

Compound: N#Cc1ccc(Oc2ccc3c(c2)COB3O)cc1 [CRISABOROLE]
- AC50 [4]: > 30 µM

Compound: C/C=C(/C(=C/C)c1ccc(O)cc1)c1ccc(O)cc1 [DIENESTROL]
- AC50 [1]: > 10 µM

Compound: CN[C@]1(c2ccccc2Cl)CCCCC1=O [ESKETAMINE]
- AC50 [3]: > 30 µM

Compound: CC(=O)O[C@H]1Cc2ccccc2N(C(N)=O)c2ccccc21 [ESLICARBAZEPINE ACETATE]
- AC50 [4]: > 30 µM

Compound: COc1ccc([C@@H]2CC(=O)c3c(O)cc(O)cc3O2)cc1O [HESPERETIN]
- AC50 [1]: > 10 µM
- AC50 [2]: > 10 µM

Compound: CNCCc1ccc(OC(=O)C(C)C)c(OC(=O)C(C)C)c1 [IBOPAMINE]
- AC50 [1]: > 30 µM
- AC50 [3]: > 30 µM
- AC50 [2]: > 30 µM

Compound: CN(C)CCCN1c2ccccc2CCc2ccccc21 [IMIPRAMINE]
- AC50 [3]: > 30 µM
- AC50 [5]: > 30 µM
- AC50 [6]: 0.454 µM

Compound: CCOC(=O)C1=C(C)NC(C)=C(C(=O)OCC)C1c1ccccc1/C=C/C(=O)OC(C)(C)C [LACIDIPINE]
- AC50 [3]: > 30 µM

Compound: COC(=O)C1=C(C)NC(C)=C(C(=O)OCCN2CCN(C(c3ccccc3)c3ccccc3)CC2)C1c1cccc([N+](=O)[O-])c1 (stereo not drawn) [MANIDIPINE 6300]
- AC50 [1]: > 30 µM
- AC50 [3]: > 30 µM
- AC50 [2]: > 30 µM

Compound: C=C1c2cccc(O)c2C(=O)C2=C(O)[C@]3(O)C(=O)C(C(N)=O)=C(O)[C@@H](N(C)C)[C@@H]3[C@@H](O)[C@H]12 [METHACYCLINE]
- AC50 [1]: > 10 µM
- AC50 [2]: > 10 µM

Compound: CN(Cc1cnc2nc(N)nc(N)c2n1)c1ccc(C(=O)N[C@@H](CCC(=O)O)C(=O)O)cc1 [METHOTREXATE]
- AC50 [3]: > 30 µM
- AC50 [5]: > 30 µM
- AC50 [6]: > 10 µM

Compound: COc1ccc(OC)c(C(O)C(C)N)c1 (stereo not drawn) [METHOXAMINE]
- AC50 [4]: > 30 µM

Compound: CC1(CCN2CCCCC2)C(=O)CCc2ccccc21 (stereo not drawn) [NEPINALONE]
- AC50 [4]: > 30 µM

Compound: COc1cccc(C(=O)CCN[C@@H](C)[C@H](O)c2ccccc2)c1 [OXYFEDRINE]
- AC50 [4]: > 30 µM

Compound: CC[N+](C)(CC)CCOC(=O)C(O)(c1ccccc1)C1CCCCC1 (stereo not drawn) [OXYPHENONIUM]
- AC50 [4]: > 30 µM

Compound: O=C1c2cccc3c2[C@H](CCC3)CN1[C@@H]1CN2CCC1CC2 [PALONOSETRON]
- AC50 [1]: > 30 µM
- AC50 [2]: > 30 µM

Compound: C[C@@H]1C[C@H]2[C@@H]3C[C@H](F)C4=CC(=O)C=C[C@]4(C)[C@H]3[C@@H](O)C[C@]2(C)[C@@]1(O)C(=O)CO [PARAMETHASONE]
- AC50 [4]: > 30 µM

Compound: OC[C@H]1O[C@@H](n2cnc3c2NC=NC[C@H]3O)C[C@@H]1O [PENTOSTATIN]
- AC50 [1]: > 30 µM
- AC50 [3]: > 30 µM
- AC50 [2]: > 30 µM

Compound: NNCCc1ccccc1 [PHENELZINE]
- AC50 [4]: > 30 µM

Compound: Cc1cccc(C)c1NC(=O)CC12CCCN1CCC2 [PILSICAINIDE]
- AC50 [1]: > 30 µM
- AC50 [3]: > 30 µM
- AC50 [2]: > 30 µM

Compound: CCCn1cnc2c1c(=O)n(CCCCC(C)=O)c(=O)n2C [PROPENTOFYLLINE]
- AC50 [4]: > 30 µM

Compound: CC(C)c1cccc(C(C)C)c1O [PROPOFOL]
- AC50 [3]: > 30 µM

Compound: CN[C@@H](C)[C@@H](O)c1ccccc1 [PSEUDOEPHEDRINE]
- AC50 [3]: > 30 µM
- AC50 [2]: > 10 µM
- AC50 [5]: > 30 µM
- AC50 [6]: > 10 µM

Compound: CCCN1CC(NS(=O)(=O)N(CC)CC)CC2Cc3c(O)cccc3CC21 (stereo not drawn) [QUINAGOLIDE]
- AC50 [3]: > 30 µM
- AC50 [2]: > 30 µM

Compound: COC(=O)[C@H]1[C@H]2C[C@@H]3c4[nH]c5cc(OC)ccc5c4CCN3C[C@H]2C[C@@H](OC(=O)c2cc(OC)c(OC)c(OC)c2)[C@@H]1OC [RESERPINE]
- AC50 [4]: > 10 µM

Compound: Clc1ccc(C(Cn2ccnc2)OCc2csc3c(Cl)cccc23)c(Cl)c1 (stereo not drawn) [SERTACONAZOLE]
- AC50 [4]: > 10 µM

Compound: CC(OCCN1CCCCCC1)(c1ccccc1)c1ccc(Cl)cc1 (stereo not drawn) [SETASTINE]
- AC50 [4]: > 30 µM

Compound: O=C1OC(OC(=O)c2cccnc2Nc2cccc(C(F)(F)F)c2)c2ccccc21 (stereo not drawn) [TALNIFLUMATE]
- AC50 [1]: > 30 µM
- AC50 [3]: > 30 µM
- AC50 [2]: > 30 µM

Compound: C[C@]12C=CC(=O)C=C1CC[C@@H]1[C@@H]2CC[C@]2(C)OC(=O)CC[C@@H]12 [TESTOLACTONE]
- AC50 [1]: > 30 µM
- AC50 [2]: > 10 µM

Compound: c1ccc2c(SC3=NCCN3)c[nH]c2c1 [TINAZOLINE]
- AC50 [4]: > 30 µM

Compound: Cc1ccc(C(=O)C(C)CN2CCCCC2)cc1 (stereo not drawn) [TOLPERISONE]
- AC50 [4]: > 30 µM

Compound: CCOC(=O)c1c(CSc2ccccc2)n(C)c2cc(Br)c(O)c(CN(C)C)c12 [UMIFENOVIR]
- AC50 [1]: 6.7 µM
- AC50 [3]: > 30 µM
- AC50 [2]: 18 µM
